Values after ≈ are worked out from the molar mass of the structure shown.
What was measured:
Botrytis cinerea = assay: Fungicidal activity against drug sensitive Botryotinia fuckeliana assessed as inhibition of germ tube elongation; format: functional, organism-based
[1] = Half life in soil assessed as compound degradation through hydrolysis and microbial degradation
[2] = Half life in drug sensitive Botryotinia fuckeliana cultures; conditions: botrytis cinerea, in vivo
[3] = Botrytis cinerea, read-out: EC50

CC(=O)NC(C#N)C(=O)O (configuration not stated)
EC50 (Botrytis cinerea; [3]): 0.025 µg/mL (≈ 0.176 µM)

CCNC(=O)N1C(=O)C(C#N)=NC1(C)C
EC50 (Botrytis cinerea): Not Active

CCN1C(=O)NC(=O)C1=O
EC50 (Botrytis cinerea): Not Active

CCN1C(=O)NC(=O)/C1=N/OC
EC50 (Botrytis cinerea): Not Active

CCNC(=O)NC(=O)/C(C#N)=N/OC [CYMOXANIL]
EC50 (Botrytis cinerea; [3]): 0.25 µg/mL (≈ 1.26 µM)
half-life [1]: < 48 h
half-life [2]: ≤ 2 h

Source: ChEMBL document CHEMBL3045185, “Characterization of metabolites of fungicidal cymoxanil in a sensitive strain of Botrytis cinerea” (J Agric Food Chem, 2008)
